Consider 8 compounds from patent US20090143279A1 (priority 2007, published 2009).

Like-named read-outs stand apart in the source and are kept apart here.

Test [1] deals with mitochondrial membrane potential. It counts as cell-based, mouse.
The next test relates to reactive oxygen species. It is filed as cell-based, mouse.
For the next test, the system named is OXPHOS gene expression. It counts as cell-based, mouse.
The next test relates to nuOXPHOS transcripts. It is filed as cell-based, mouse.
The test system of another test is mtOXPHOS transcripts. It is filed as cell-based, mouse.
A further test has as its system cytochrome c. It counts as cell-based, mouse.
Test [2] concerns cellular dehydrogenase activity.
Where [3] appears, read: composite Z-score vs mock-treated (DMSO) wells, Conc 20 μM.
[4] abbreviates: composite Z-score vs DMSO, Conc 20 μM.
The mark [5] stands for this setting: composite Z-score vs DMSO wells, Conc 20 μM.
Where [6] appears, read: normalized composite Z-score vs mock-treated (DMSO) wells, Conc 20 μM.
Setting [7] is: 20 μM, composite Z-score vs DMSO.
The mark [8] stands for this setting: composite Z-score vs mock-treated (DMSO) wells, concentration of each compound in μM.

cytochrome c, sequence (P62897 whole entry): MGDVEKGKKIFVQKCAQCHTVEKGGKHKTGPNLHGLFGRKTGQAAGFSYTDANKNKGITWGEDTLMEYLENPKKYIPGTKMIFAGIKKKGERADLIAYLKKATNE

Turning to `COC(=O)[C@@]1(C)CCC[C@]2(C)c3ccc(O)c(C(C)C)c3CCC12` (stereo partly drawn) [totarol-19-carboxylic acid, methyl ester], the ΔΨm in test [1] (setting [3]) was −0.409. For the same compound, the ROS in the test with reactive oxygen species (setting [3]) came out at 1.290. This compound displayed a GE-HTS in the test on OXPHOS gene expression (setting [3]) of −0.323. Further, the nucOX in the test on nuOXPHOS transcripts (setting [3]) is −0.005. In the test on mtOXPHOS transcripts (setting [3]), this compound registered a mitoOX of −0.853. For the same compound, the cyt c in the test on cytochrome c (setting [3]) is 0.085. This compound also had a Viability with C2C12 myotubes (setting [3]) of −0.739. For the same compound, the MTT in test [2] (setting [3]) is 1.019.

Consider totarol acetate, for which the ΔΨm in test [1] (setting [4]) is listed as −0.556. The compound further registered an ROS in the test with reactive oxygen species (setting [4]) of 0.452. Moreover, the GE-HTS in the test on OXPHOS gene expression (setting [4]) is listed as 0.574. The compound also registered a nucOX in the test on nuOXPHOS transcripts (setting [4]) of 0.830. In the test with mtOXPHOS transcripts (setting [4]), this compound yielded a mitoOX of −0.125. The cyt c in the test with cytochrome c (setting [4]) was found to be 1.207. Also, in the test with C2C12 myotubes (setting [4]), the Viability was −0.273. Moreover, the MTT in test [2] (setting [4]) is 0.730.

In the case of `Cc1c(N(C)CS(=O)(=O)[O-])c(=O)n(-c2ccccc2)n1C.[Na+]` [dipyrone], the ΔΨm was −0.738 in test [1] and −0.760 in test [1] (setting [5]). Also, the ROS in the test on reactive oxygen species is reported as −0.683; with reactive oxygen species (setting [5]) it was −1.148. The same compound registered a GE-HTS in the test with OXPHOS gene expression (setting [5]) of −0.955. For the same compound, the nucOX in the test on nuOXPHOS transcripts (setting [5]) is given as −0.930. Further, in the test on mtOXPHOS transcripts (setting [5]), the mitoOX is given as −0.820. In addition, the cyt c was determined as 0.356 in the test on cytochrome c and 0.337 in the test with cytochrome c (setting [5]). Also, the Viability is −0.607 with C2C12 myotubes and −0.809 with C2C12 myotubes (setting [5]). In addition, the MTT in test [2] is recorded as −1.243; in test [2] (setting [5]), −1.908.

In test [1] (setting [6]), `CC(=O)O[C@@H]1CC2C(C)(C)C(=O)[C@@H]3O[C@@H]3[C@]2(C)C2CC[C@]3(C)C(=CC(=O)O[C@H]3c3ccoc3)[C@@]21C` (stereo partly drawn) [1 (2)alpha-epoxydeoxydihydrogedunin] came in with a ΔΨm of 0.074. Besides, the ROS in the test with reactive oxygen species (setting [6]) is 2.784. This compound also displayed a GE-HTS with OXPHOS gene expression (setting [6]) of −0.801. This compound also came in with a nucOX in the test on nuOXPHOS transcripts (setting [6]) of −0.831. This compound had a mitoOX with mtOXPHOS transcripts (setting [6]) of −0.539. Besides, the cyt c with cytochrome c (setting [6]) is 0.022. This compound also came in with a Viability in the test on C2C12 myotubes (setting [6]) of 0.015. The MTT in test [2] (setting [6]) was −1.048.

`CN(C)C(=S)SSC(=S)N(C)C` [thiram] registered a ΔΨm in test [1] (setting [7]) of −4.011. Also, in the test on reactive oxygen species (setting [7]), the ROS is on record as −3.915. The compound also displayed a GE-HTS in the test with OXPHOS gene expression (setting [7]) of −2.420. The compound also gave a nucOX in the test with nuOXPHOS transcripts (setting [7]) of −2.770. For the same compound, the mitoOX in the test on mtOXPHOS transcripts (setting [7]) is listed as −1.220. The compound further yielded a cyt c with cytochrome c (setting [7]) of −4.853. In the test on C2C12 myotubes (setting [7]), the Viability is −5.812. For the same compound, in test [2] (setting [7]), the MTT was −6.222.

As to `C[C@@]12CCc3occc3[C@H]1CC[C@@]13C[C@@H](CC[C@H]12)[C@@](O)(CO)C3` [cafestol], the ΔΨm in test [1] (setting [4]) is recorded as 1.283. In the test with reactive oxygen species (setting [4]), this compound had an ROS of 0.832. Further, the GE-HTS in the test on OXPHOS gene expression (setting [4]) is −0.833. The compound further gave a nucOX in the test on nuOXPHOS transcripts (setting [4]) of −0.385. Moreover, the mitoOX with mtOXPHOS transcripts (setting [4]) is −1.543. The same compound showed a cyt c in the test on cytochrome c (setting [4]) of 1.374. Moreover, in the test on C2C12 myotubes (setting [4]), the Viability came to 0.025. Further, in test [2] (setting [4]), the MTT is given as 1.124.

`CCCCCC(=O)Cc1cc(O)cc(O)c1C(=O)Oc1cc(CC(=O)CCCCC)c(C(=O)O)c(OC)c1` [arthonioic acid]: in test [1] (setting [4]), the ΔΨm is given as −0.493. This compound displayed an ROS with reactive oxygen species (setting [4]) of 1.167. Further, the GE-HTS in the test with OXPHOS gene expression (setting [4]) is on record as −0.668. In the test on nuOXPHOS transcripts (setting [4]), this compound returned a nucOX of −0.590. Also, the mitoOX in the test on mtOXPHOS transcripts (setting [4]) is −0.657. In the test with cytochrome c (setting [4]), this compound displayed a cyt c of −0.019. This compound came in with a Viability with C2C12 myotubes (setting [4]) of −0.413. The compound further displayed an MTT in test [2] (setting [4]) of −2.597.

Turning to `C[C@@H]1[C@H](O)[C@@H](C)/C=C/C=C/CC/C=C/C=C/C=C/C=C/C(O[C@H]2O[C@H](C)[C@@H](O)[C@H](N)[C@@H]2O)CC2O[C@](O)(CC(O)C(O)CCC(O)CC(O)CC(O)CC(=O)O[C@H]1C)CC(O)C2C(=O)O` (stereo partly drawn) [nystatine], the ΔΨm in test [1] (setting [8]) was −0.660. In the test with reactive oxygen species (setting [8]), this compound returned an ROS of 0.765. Further, in the test on OXPHOS gene expression (setting [8]), the GE-HTS is given as −0.436. Also, the nucOX with nuOXPHOS transcripts (setting [8]) is given as −0.272. In addition, the mitoOX in the test on mtOXPHOS transcripts (setting [8]) is reported as −0.683. In addition, the cyt c in the test on cytochrome c (setting [8]) turned out to be 0.061. This compound displayed a Viability in the test on C2C12 myotubes (setting [8]) of −0.430. The compound also had an MTT in test [2] (setting [8]) of −1.147.
